Source: ChEMBL document CHEMBL5150072, “Discovery and Crystallographic Studies of Nonpeptidic Piperazine Derivatives as Covalent SARS-CoV-2 Main Protease Inhibitors” (J Med Chem, 2022)
Active and inactive are the calls of the source. The rule behind the calls is not given here.

Assays:
[1] = target: T1, Replicase polyprotein 1ab (Severe acute respiratory syndrome coronavirus 2, UniProt P0DTD1); test: Inhibition of SARS-CoV-2 main protease
[2] = system: SARS-CoV-2; test: Antiviral activity against SARS-CoV-2 infected in Vero E6 cells; assay type: functional, organism-based; details: Severe acute respiratory syndrome coronavirus 2, Vero C1008
[3] = target: Replicase polyprotein 1ab (Severe acute respiratory syndrome coronavirus 2) (UniProt P0DTD1); test: Potency index, ratio of IC50 for MCULE-5948770040 to IC50 for test compound for inhibition of SARS-COV-2 main protease
[4] = target: Replicase polyprotein 1ab (Severe acute respiratory syndrome coronavirus 2) (UniProt P0DTD1); test: Covalent inhibition of SARS-CoV-2 main protease assessed as protein-compound adduct formation incubated for 30 mins by MALDI-TOF analysis
[5] = Cytotoxicity against african green monkey Vero E6 cells assessed as reduction in cell viability after 26 hrs by MTS assay; assay type: toxicity, cell-based, Vero C1008; details: chlorocebus sabaeus
[6] = target: T1, Replicase polyprotein 1ab; test: Inhibition of SARS-CoV-2 main protease using MCA-AVLQSGFR-Lys(Dnp)-Lys-NH2 as substrate preincubated for 30 mins followed by substrate addition and measured every 10 sec for 10 mins by FRET assay
[7] = target: T2, Cathepsin K (Homo sapiens, UniProt P43235); test: Inhibition of human cathepsin K using Ac-LR-AFC as substrate by […] assay; assay type: toxicity
T2 sequence (P43235 whole entry): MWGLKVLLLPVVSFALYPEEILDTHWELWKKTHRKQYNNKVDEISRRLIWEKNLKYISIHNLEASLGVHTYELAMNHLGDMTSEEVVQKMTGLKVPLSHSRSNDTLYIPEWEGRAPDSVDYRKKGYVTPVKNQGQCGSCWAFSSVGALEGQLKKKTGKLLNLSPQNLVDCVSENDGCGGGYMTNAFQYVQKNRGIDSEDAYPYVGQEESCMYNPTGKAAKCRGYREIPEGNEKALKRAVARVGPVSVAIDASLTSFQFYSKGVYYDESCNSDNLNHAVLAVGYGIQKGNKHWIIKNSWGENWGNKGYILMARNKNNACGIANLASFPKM

[8] = target: T3, Cathepsin F (Homo sapiens, UniProt Q9UBX1); test: Inhibition of human cathepsin F using Z-Phe-Arg-AMC as substrate by […] assay; assay type: toxicity
T3 sequence (Q9UBX1 whole entry): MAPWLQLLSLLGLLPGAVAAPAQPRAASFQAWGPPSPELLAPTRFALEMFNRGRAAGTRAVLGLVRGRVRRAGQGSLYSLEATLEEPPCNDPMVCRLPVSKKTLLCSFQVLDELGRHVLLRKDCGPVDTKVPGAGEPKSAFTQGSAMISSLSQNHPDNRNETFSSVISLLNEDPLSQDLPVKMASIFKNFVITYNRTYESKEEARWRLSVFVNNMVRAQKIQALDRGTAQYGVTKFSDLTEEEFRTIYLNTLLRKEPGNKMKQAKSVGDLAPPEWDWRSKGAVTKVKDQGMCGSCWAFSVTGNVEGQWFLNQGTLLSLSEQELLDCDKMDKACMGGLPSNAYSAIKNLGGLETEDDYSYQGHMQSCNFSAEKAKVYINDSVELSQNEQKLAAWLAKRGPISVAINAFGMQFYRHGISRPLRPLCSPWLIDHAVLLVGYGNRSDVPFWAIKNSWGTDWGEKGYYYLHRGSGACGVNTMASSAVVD

[9] = target: Cathepsin B (Homo sapiens, UniProt P07858); test: Inhibition of human cathepsin B using Z-Leu-Arg-AMC as substrate by […] assay; assay type: toxicity
[10] = target: Replicase polyprotein 1ab (Severe acute respiratory syndrome coronavirus 2) (UniProt P0DTD1); test: Irreversible inhibition of SARS-CoV-2 main protease assessed as ratio of Kinact/Ki incubated for 60 mins by MS analysis
[11] = system: SARS-CoV-2; test: Antiviral activity against SARS-CoV-2 infected in Vero E6 cells preincubated for 1 hr followed by methylcellulose addition and measured after 25 to 26 hrs by EliSpot reader based analysis; assay type: functional, organism-based; details: Severe acute respiratory syndrome coronavirus 2, Vero C1008
[12] = target: Procathepsin L (Homo sapiens, UniProt P07711); test: Inhibition of human cathepsin L using Z-Leu-Arg-AMC as substrate by […] assay; assay type: toxicity
[13] = target: T4, Caspase-3 (Homo sapiens, UniProt P42574); test: Inhibition of human caspase 3 using Ac-Asp-Glu-Val-Asp-pNA as substrate by […] assay; assay type: toxicity
T4 sequence (P42574 whole entry): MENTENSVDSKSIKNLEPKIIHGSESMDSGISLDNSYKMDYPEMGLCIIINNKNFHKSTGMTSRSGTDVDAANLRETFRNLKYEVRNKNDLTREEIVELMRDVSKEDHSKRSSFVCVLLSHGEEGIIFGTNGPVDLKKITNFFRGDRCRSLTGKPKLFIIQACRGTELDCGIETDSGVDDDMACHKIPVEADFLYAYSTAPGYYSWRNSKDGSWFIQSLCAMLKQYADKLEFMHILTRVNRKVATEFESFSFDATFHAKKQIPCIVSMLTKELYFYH

[14] = Cytotoxicity against african green monkey Vero E6 cells; assay type: toxicity, cell-based, Vero C1008; details: chlorocebus sabaeus
[15] = target: T1, Replicase polyprotein 1ab; test: Inhibition of SARS-CoV-2 main protease incubated for 30 mins by FRET based assay
[16] = system: SARS-CoV-2; test: Antiviral activity against SARS-CoV-2 infected in Vero E6 cells assessed as reduction in virus induced cytopathic effect incubated for 3 days; assay type: functional, organism-based; details: Severe acute respiratory syndrome coronavirus 2, Vero C1008, 72 h
[17] = system: SARS-CoV-2; test: Antiviral activity against SARS-CoV-2 infected in VeroE6 cells measured after 24 hrs post infection by plaque assay; assay type: functional, organism-based; details: Severe acute respiratory syndrome coronavirus 2, Vero C1008, 24 h

Procathepsin L, sequence (P07711 whole entry): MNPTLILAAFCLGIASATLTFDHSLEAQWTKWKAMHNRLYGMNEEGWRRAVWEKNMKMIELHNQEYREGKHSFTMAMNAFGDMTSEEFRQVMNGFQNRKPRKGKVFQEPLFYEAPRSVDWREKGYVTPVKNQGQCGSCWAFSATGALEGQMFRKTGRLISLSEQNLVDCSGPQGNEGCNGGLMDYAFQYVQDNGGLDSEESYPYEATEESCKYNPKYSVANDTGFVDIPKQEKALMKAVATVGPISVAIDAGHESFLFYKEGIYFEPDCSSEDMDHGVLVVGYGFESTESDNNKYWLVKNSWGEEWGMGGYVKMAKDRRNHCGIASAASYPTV

Row | SMILES | CC50 at 26 h [5] [µM] | IC50 [6] [µM] | EC50 [11] [µM] | also measured
1 | [2H][C@](C(=O)N[C@@H](C)c1ccc(F)cc1)(c1cccnc1)N(C(=O)C(C)=O)c1ccc2c(c1)oc1ccccc12 | – | – | – | IC50 [1]: 0.008 µM; EC50 [2]: 0.9 µM
2 | O=C(NCc1cccs1)[C@@H]1CN(C(=O)CCl)CCN1c1ccc(Cl)c(Cl)c1 | 12.5 | 0.18 | 2.64 | Ratio IC50 [3]: 28; inhibition [4]: Active; IC50 [7]: > 30 µM; IC50 [8]: > 30 µM; IC50 [9]: > 30 µM; Ratio [10]: 21500 M⁻¹ s⁻¹; IC50 [12]: > 30 µM; IC50 [13]: > 30 µM
3 | O=C(NCc1cccs1)[C@@H]1CN(C(=O)CBr)CCN1c1ccc(Cl)c(Cl)c1 | 6.5 | 0.31 | 4.24 | Ratio IC50 [3]: 16
4 | CC(C)(C)NC(=O)C(c1cccnc1)N(C(=O)c1ccco1)c1ccc(C(C)(C)C)cc1 (stereo unspecified) | – | – | – | EC50 [2]: > 20 µM
5 | C#CC(=O)N1CCN(c2ccc(Cl)c(Cl)c2)[C@H](C(=O)NCc2cccs2)C1 | 11.9 | 2.8 | 1.37 | –
6 | O=c1c2ccccc2[se]n1-c1ccccc1 [EBSELEN] | – | – | – | CC50 [14]: > 20 µM
7 | CC(C)(C)[C@H](NC(=O)C(F)(F)F)C(=O)N1C[C@H]2[C@@H]([C@H]1C(=O)N[C@H](C#N)C[C@@H]1CCNC1=O)C2(C)C | > 100 | – | – | –
8 | CCC(CC)COC(=O)[C@H](C)N[P@](=O)(OC[C@H]1O[C@@](C#N)(c2ccc3c(N)ncnn23)[C@H](O)[C@@H]1O)Oc1ccccc1 | > 100 | – | 2.27 | –
9 | C[C@H](NC(=O)[C@@H](c1cccnc1)N(C(=O)C(Cl)Cl)c1ccc(-c2ccccc2)cc1)c1ccccc1 | – | – | – | CC50 [14]: 33.1 µM; IC50 [15]: 0.67 µM; EC50 [2]: 0.67 µM
10 | O=C(NCc1cccs1)[C@@H]1CN(C(=O)c2cccnc2)CCN1c1ccc(Cl)c(Cl)c1 | > 100 | 0.4 | 0.4 | –
11 | COc1cccc2[nH]c(C(=O)N[C@@H](CC(C)C)C(=O)N[C@@H](C[C@@H]3CCNC3=O)C(=O)CO)cc12 [PF-00835231] | – | – | – | EC50 [16]: 0.23 µM
12 | O=C(NCc1cccs1)[C@@H]1CN(C(=O)C(F)(F)S(=O)(=O)F)CCN1c1ccc(Cl)c(Cl)c1 | > 100 | 1.6 | 183 | –
13 | O=C[C@H](C[C@@H]1CCNC1=O)NC(=O)[C@H](CC1CCCCC1)NC(=O)c1cc2ccccc2[nH]1 | – | – | – | EC50 [17]: 0.42 µM
